Results: PubChem BioAssay (NCI)
Values joined by “and” are separate entries in the source; they are usually repeats but may differ in a detail not shown here. Equal values may be shown once.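 A five-concentration, 48-hour dose response in 96-well plates underlies each endpoint, interpolated linearly between surrounding concentrations. Here, GI50 denotes the concentration required for 50% inhibition of growth. TGI marks complete inhibition of growth.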

Columns and labels:
Assay in all cases: NCI anticancer screen, dose series, 48 h
MDA-MB-468 breast = tested on: MDA-MB-468 breast
SK-MEL-2 melanoma = tested on: SK-MEL-2 melanoma
BT-549 breast = tested on: BT-549 breast
MOLT-4 leukemia = tested on: MOLT-4 leukemia
HL-60(TB) leukemia = tested on: HL-60(TB) leukemia
RXF 393 renal = tested on: RXF 393 renal
CCRF-CEM leukemia = tested on: CCRF-CEM leukemia
DU-145 prostate = tested on: DU-145 prostate
786-0 renal = tested on: 786-0 renal
EKVX NSCLC = tested on: EKVX NSCLC
ACHN renal = tested on: ACHN renal
HCT-15 colon = tested on: HCT-15 colon
A498 renal = tested on: A498 renal
HCC-2998 colon = tested on: HCC-2998 colon
MCF7 breast = tested on: MCF7 breast
OVCAR-4 ovarian = tested on: OVCAR-4 ovarian
OVCAR-3 ovarian = tested on: OVCAR-3 ovarian
SNB-19 CNS = tested on: SNB-19 CNS
TK-10 renal = tested on: TK-10 renal
NCI-H23 lung = tested on: NCI-H23 lung
RPMI-8226 leukemia = tested on: RPMI-8226 leukemia

With COc1ccc(C2=NNC(c3sc(Cl)nc3Cl)C2)cc1 (configuration not stated) the GI50 (MDA-MB-468 breast) was 2.6 µM and the TGI (MDA-MB-468 breast) was 8.19 µM.

For O=C(O)C(Cc1ccccc1)N1C(=O)/C(=C/C(Cl)=C/c2ccc([N+](=O)[O-])cc2)SC1=S (configuration not stated), the GI50 (MDA-MB-468 breast) was 1.39 µM and the TGI (MDA-MB-468 breast) was 3.28 µM.

For CCOC(=O)c1sc(NC(=O)COc2ccc(/C=C3\CCc4cc(OC)ccc4C3=O)cc2)nc1C, the GI50 (MDA-MB-468 breast) was 1.73 µM and the TGI (MDA-MB-468 breast) was 7.2 µM.

In the case of COc1ccc(C(=O)c2ccccc2)c(O)c1, the GI50 (MDA-MB-468 breast) is reported as 40 µM and the TGI (MDA-MB-468 breast) is reported as > 100 µM.

Work on C=C1C(=O)O[C@@H]2C[C@@H](C)[C@@H]3C=CC(=O)[C@@]3(C)[C@@H](OC(=O)CCCC(=O)O[C@H]3[C@@H]4C(=C)C(=O)O[C@@H]4C[C@@H](C)[C@@H]4C=CC(=O)[C@]43C)[C@H]12 yielded a GI50 (MDA-MB-468 breast) of 0.0143 µM and a TGI (MDA-MB-468 breast) of 0.0328 µM.

With COc1cccc(C2C(C#N)=C(N)Oc3cc(OCCCCCC[P+](c4ccccc4)(c4ccccc4)c4ccccc4)ccc32)c1 (configuration not stated) the GI50 (MDA-MB-468 breast) was 0.222 µM and the TGI (MDA-MB-468 breast) was 0.611 µM.

With CN(C)CCN=c1nc2c(c(N)n1-c1ccccc1)c(=S)n(-c1ccccc1)c(=S)n2-c1ccccc1 the GI50 (MDA-MB-468 breast) was 1.36 µM and the TGI (MDA-MB-468 breast) was 3.02 µM.

In the case of CSCc1ncc(-c2ccc(C(F)(F)F)cc2)c(NC2CCCCCC2)n1, the GI50 (MDA-MB-468 breast) is reported as > 10 µM and the TGI (MDA-MB-468 breast) is reported as > 10 µM.

For CN(CCOc1ccc(NS(C)(=O)=O)cc1)CCc1ccc(NS(C)(=O)=O)cc1, the GI50 (MDA-MB-468 breast) was > 100 µM and the TGI (MDA-MB-468 breast) was > 100 µM.

CN(Cc1cnc2nc(N)nc(N)c2n1)c1c(Cl)cc(C(=O)NC(CCC(=O)O)C(=O)O)cc1Cl (configuration not stated) was tested, and the GI50 (MDA-MB-468 breast) was < 0.0211 µM.

For CC(C)(O)c1cc(Nc2cc(Oc3cn(C4CC4)nc3C3CCOCC3)ccn2)ccn1, the GI50 (MDA-MB-468 breast) was 30.6 µM and the TGI (MDA-MB-468 breast) was > 100 µM.

COc1cc(N)c(Cl)cc1C(=O)N[C@@H]1CCN(CCCOc2ccc(F)cc2)C[C@@H]1OC was tested, and the GI50 (MDA-MB-468 breast) was 89.4 µM and the TGI (MDA-MB-468 breast) was > 100 µM.

C/C(=N\NC(=S)N1CCCC1)c1ccccn1 was tested, and the GI50 (MDA-MB-468 breast) was < 0.01 µM and the TGI (MDA-MB-468 breast) was 0.0801 µM.

COc1ccc2c(c1)[n+](=O)c(/C=C/C(=O)c1cc(OC)c(OC)c(OC)c1)c(C)n2[O-] was tested, and the GI50 (MDA-MB-468 breast) was 3.16 µM and the TGI (MDA-MB-468 breast) was 18 µM.

CCCCC[C@H]1C/C=C2/C(=O)C=C[C@@H]2C/C=C\CCCC(=O)O1 gave a GI50 (MDA-MB-468 breast) of 0.134 µM and a TGI (MDA-MB-468 breast) of 0.577 µM.

In the case of COC(=O)N[C@@H](C)CNc1nccc(-c2cn(C(C)C)nc2-c2cc(Cl)cc(NS(C)(=O)=O)c2F)n1, the GI50 (MDA-MB-468 breast) is reported as 24.8 µM and the TGI (MDA-MB-468 breast) is reported as > 100 µM.

COc1ccc(N=c2nc3sc4cc(Cl)ccc4n3c(N)c2C#N)cc1 was tested, and the GI50 (MDA-MB-468 breast) was 1.11 µM and the TGI (MDA-MB-468 breast) was 19.7 µM.

For O=C(NCc1cn(Cc2cccc(Oc3ccccc3)c2)nn1)c1cccnc1NCc1ccc(Cl)cc1, the GI50 (MDA-MB-468 breast) was 3.44 µM and the TGI (MDA-MB-468 breast) was > 100 µM.

Compound COc1ccc(/C=C(\C#N)c2cc(OC)c(OC)c(OC)c2)cc1 has a GI50 (MDA-MB-468 breast) of 0.0222 µM and a TGI (MDA-MB-468 breast) of 2.52 µM.

CCCCS(=O)(=O)c1cc(Nc2ccc(O)c3c2C(=O)c2ccccc2C3=O)ccc1C was tested, and the GI50 (MDA-MB-468 breast) was 88.3 µM and the TGI (MDA-MB-468 breast) was > 100 µM.

For COc1ccc2nc(Nc3cccc(NC(=O)c4ccc(CN5CCCN(C)CC5)c(C(F)(F)F)c4)c3)ccc2c1, the GI50 (SK-MEL-2 melanoma) was 0.175 µM, the TGI (SK-MEL-2 melanoma) was 0.315 µM and the GI50 (MDA-MB-468 breast) was 0.125 µM. The TGI (MDA-MB-468 breast) was 0.256 µM, the GI50 (BT-549 breast) was 0.16 µM and the TGI (BT-549 breast) was 0.297 µM. It also gave a GI50 (MOLT-4 leukemia) of 0.102 µM, a TGI (MOLT-4 leukemia) of 0.352 µM and a GI50 (HL-60(TB) leukemia) of 0.189 µM. For the same compound, the TGI (HL-60(TB) leukemia) was 0.438 µM, the GI50 (RXF 393 renal) was 0.134 µM and the TGI (RXF 393 renal) was 0.267 µM. It also gave a GI50 (CCRF-CEM leukemia) of 0.173 µM, a TGI (CCRF-CEM leukemia) of 0.531 µM and a GI50 (DU-145 prostate) of 0.171 µM. It also gave a TGI (DU-145 prostate) of 0.316 µM, a GI50 (786-0 renal) of 0.169 µM and a TGI (786-0 renal) of 0.309 µM. It also gave a GI50 (EKVX NSCLC) of 0.167 µM, a TGI (EKVX NSCLC) of 0.307 µM and a GI50 (ACHN renal) of 0.171 µM. The TGI (ACHN renal) was 0.308 µM, the GI50 (HCT-15 colon) was 0.0511 µM and the TGI (HCT-15 colon) was 0.17 µM. It also gave a GI50 (A498 renal) of 0.177 µM, a TGI (A498 renal) of 0.325 µM and a GI50 (HCC-2998 colon) of 0.175 µM. For the same compound, the TGI (HCC-2998 colon) was 0.313 µM, the GI50 (MCF7 breast) was 0.121 µM and the TGI (MCF7 breast) was 0.261 µM. For the same compound, the GI50 (OVCAR-4 ovarian) was 0.171 µM, the TGI (OVCAR-4 ovarian) was 0.34 µM and the GI50 (OVCAR-3 ovarian) was 0.177 µM. For the same compound, the TGI (OVCAR-3 ovarian) was 0.334 µM, the GI50 (SNB-19 CNS) was 0.173 µM and the TGI (SNB-19 CNS) was 0.313 µM. The GI50 (TK-10 renal) was 0.179 µM, the TGI (TK-10 renal) was 0.318 µM and the GI50 (NCI-H23 lung) was 0.148 µM. The TGI (NCI-H23 lung) was 0.282 µM, the GI50 (RPMI-8226 leukemia) was 0.176 µM and the TGI (RPMI-8226 leukemia) was 0.456 µM.

Compound CCOC(=O)/C=C/c1ccc([N+](=O)[O-])o1 has a GI50 (MDA-MB-468 breast) of 3.76 µM and a TGI (MDA-MB-468 breast) of 17.5 µM.

With COc1ccc(C2C3=C(COC3=O)Oc3cc4c(cc32)OCO4)cc1OC (configuration not stated) the GI50 (MDA-MB-468 breast) was 4.7 µM and the TGI (MDA-MB-468 breast) was > 100 µM.

With Fc1ccc(-c2ncn(C3CCNCC3)c2-c2ccnc(Oc3ccc(Cl)cc3)n2)cc1 the GI50 (MDA-MB-468 breast) was 1.78 µM and the TGI (MDA-MB-468 breast) was 5.36 µM.

In the case of CCN(CC)c1ccc(/C=N/N=C(N)N)cc1, the GI50 (MDA-MB-468 breast) is reported as 1.88 µM and the TGI (MDA-MB-468 breast) is reported as 6.61 µM.

In the case of COc1ccc(CN2c3ccccc3Sc3ccccc32)cc1O, the GI50 (MDA-MB-468 breast) is reported as 0.531 µM and the TGI (MDA-MB-468 breast) is reported as 12.3 µM.

In the case of COc1cc(C2CC(c3ccc(Cl)cc3)=NN2C(C)=O)ccc1Oc1ccnc2cc(Cl)ccc12 (configuration not stated), the GI50 (MDA-MB-468 breast) is reported as 4.22 µM and the TGI (MDA-MB-468 breast) is reported as > 100 µM.

N#C/C(=C/C=C/c1cccc(Cl)c1)S(=O)c1ccccc1 (configuration not stated) was tested, and the GI50 (MDA-MB-468 breast) was 0.258 µM and the TGI (MDA-MB-468 breast) was 0.758 µM.

Compound Cc1cc(C)c(-c2c(O)c(Br)c(-c3c(C)cc(C)c(Br)c3C)c(O)c2Br)c(C)c1Br has a GI50 (MDA-MB-468 breast) of 2.83 µM and a TGI (MDA-MB-468 breast) of 11.1 µM.

With CCOc1ccc2cc(-c3nn(CC4CCN(C)CC4)c4ncnc(N)c34)ccc2c1 the GI50 (MDA-MB-468 breast) was 14.5 µM and the TGI (MDA-MB-468 breast) was 32.2 µM.

For Cn1cc(-c2csc(-c3ccc(Cl)cc3)n2)c2cccnc21, the GI50 (MDA-MB-468 breast) was 10.5 µM and the TGI (MDA-MB-468 breast) was 31.1 µM.

Compound CCC(=C(c1ccc(OCCN2CCCCCC2)cc1)c1ccc(OCCN2CCCCCC2)cc1)c1ccc(Cl)cc1 has a GI50 (MDA-MB-468 breast) of 0.656 µM and a TGI (MDA-MB-468 breast) of 1.49 µM.

CCS(=O)(=O)c1cccc(-c2cc(C(=O)NC3CCN(C)CC3)c(C)c3[nH]c4ncc(C)cc4c23)c1 was tested, and the GI50 (MDA-MB-468 breast) was 0.192 µM and 0.0869 µM and the TGI (MDA-MB-468 breast) was 2.69 µM and 0.47 µM.

In the case of CC(=O)c1nc(-c2ccc(C[C@@H](CNC(=O)CN(C)C)NC(=O)c3ccc(OC(C)C)c(Cl)c3)cc2)cn1C, the GI50 (MDA-MB-468 breast) is reported as 0.0399 µM and the TGI (MDA-MB-468 breast) is reported as 14.3 µM.
